The values that follow come from patent US20250051338A1, “TYK2 DEGRADERS AND USES THEREOF” (Kymera Therapeutics, Inc., priority 2021, published 2025).

Holding throughout (assay type): cell-based
In assay [1] the target is T1, TYK2 (Homo sapiens, UniProt P29597). In words: TYK2 degradation MSD assay in OCI-LY10 cells. On the set-up: endogenous in cells; host or cells: EBV-B cells. Conditions: 4 to 24 hours incubation, read-out: TYK2 MSD DC50 rating in OCI-LY10. The essentials:
(§1)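 TYK2 levels in lysed cells, detected via antibody capture and SULFO-TAG electrochemiluminescence, were compared across a nine-point threefold compound dilution (highest 1 to 10 μM) after 4–24 h culture at 37° C under 5% CO2. Four-parameter nonlinear regression of the dose response yielded DC50.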

Assay [2] has as its target T1, TYK2. In words: TYK2 degradation MSD assay in EBV-B cells. More on the design: endogenous in cells; host or cells: EBV-B cells. The essentials:
as §1

For assay [3], the target named is T1, TYK2. Nature of the assay: TYK2 degradation MSD assay in human PBMC cells. More on the design: endogenous in cells; host or cells: human PBMC. Conditions: 4 to 24 hours incubation, read-out: TYK2 MSD DC50 rating in human PBMC. The essentials: as §1
[4] abbreviates: 4 to 24 hours incubation, read-out: TYK2 MSD DC50 rating in EBV-B.

SMILES strings stand for the structures.

T1 sequence (P29597 whole entry): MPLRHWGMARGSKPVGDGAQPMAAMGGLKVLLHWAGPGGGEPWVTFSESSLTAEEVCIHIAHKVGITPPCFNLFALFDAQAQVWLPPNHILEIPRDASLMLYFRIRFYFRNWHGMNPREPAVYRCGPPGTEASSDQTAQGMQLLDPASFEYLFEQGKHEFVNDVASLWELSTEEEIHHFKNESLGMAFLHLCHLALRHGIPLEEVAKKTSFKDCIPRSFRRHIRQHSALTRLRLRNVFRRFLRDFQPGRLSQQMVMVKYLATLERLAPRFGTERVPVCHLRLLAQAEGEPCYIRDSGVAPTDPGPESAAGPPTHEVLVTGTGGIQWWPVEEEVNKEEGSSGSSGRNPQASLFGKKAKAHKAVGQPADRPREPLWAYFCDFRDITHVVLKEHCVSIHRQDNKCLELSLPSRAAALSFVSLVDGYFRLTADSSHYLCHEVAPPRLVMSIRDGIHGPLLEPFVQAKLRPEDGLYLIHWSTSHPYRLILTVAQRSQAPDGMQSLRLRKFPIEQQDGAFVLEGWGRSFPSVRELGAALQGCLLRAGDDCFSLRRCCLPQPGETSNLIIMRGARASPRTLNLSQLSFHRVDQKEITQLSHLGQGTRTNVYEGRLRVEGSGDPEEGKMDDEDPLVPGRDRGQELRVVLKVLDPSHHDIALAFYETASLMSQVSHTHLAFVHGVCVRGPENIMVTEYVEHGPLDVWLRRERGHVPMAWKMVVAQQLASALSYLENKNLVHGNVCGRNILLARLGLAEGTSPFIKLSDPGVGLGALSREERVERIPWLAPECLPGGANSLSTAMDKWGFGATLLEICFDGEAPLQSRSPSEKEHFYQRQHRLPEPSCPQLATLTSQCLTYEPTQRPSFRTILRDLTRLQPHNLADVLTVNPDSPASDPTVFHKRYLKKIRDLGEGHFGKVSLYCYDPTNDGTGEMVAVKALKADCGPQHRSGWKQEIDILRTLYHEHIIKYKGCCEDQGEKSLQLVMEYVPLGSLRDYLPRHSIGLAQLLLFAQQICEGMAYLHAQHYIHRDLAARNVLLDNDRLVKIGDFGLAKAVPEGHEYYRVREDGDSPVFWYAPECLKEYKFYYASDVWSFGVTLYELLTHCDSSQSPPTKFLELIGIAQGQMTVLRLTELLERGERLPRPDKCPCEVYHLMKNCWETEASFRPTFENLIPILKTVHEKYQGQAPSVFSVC

For orientation: DC50 means the concentration at which degradation of the target reaches its halfway point. For `CNc1cc(-c2cnn(C3CCN(C(=O)NCCCCc4cccc5c4n(C)c(=O)n5C4CCC(=O)NC4=O)CC3)c2)nn2c(C(=O)N[C@@H]3C[C@@H]3F)cnc12` (stereo partly drawn) [Example K295], the half-maximal degradation concentration (DC50) on TYK2 [1], on TYK2 [2] (setting [4]) and on TYK2 [3] was more than 100 nM throughout.

For the compound `CNc1cc(-c2cnn(C3CCN(C(=O)NCCCCCCCCc4ccc5c(c4)n(C)c(=O)n5C4CCC(=O)NC4=O)CC3)c2)nn2c(C(=O)N[C@@H]3C[C@@H]3F)cnc12` (stereo partly drawn) [Example K296], the values for the half-maximal degradation concentration (DC50) at TYK2 [1], on TYK2 [2] (setting [4]) and on TYK2 [3] were more than 100 nM, more than 100 nM and less than 1 nM, respectively.

As for `CNc1cc(-c2ccc(C(=O)NCCCCCCc3ccc4c(c3)n(C)c(=O)n4C3CCC(=O)NC3=O)cc2)nn2c(C(=O)N[C@@H]3C[C@@H]3F)cnc12` (stereo partly drawn) [Example K298], the 50% degradation concentration (DC50) at TYK2 [1], at TYK2 [2] (setting [4]) and at TYK2 [3] was more than 100 nM each time.

Take `CNc1cc(-c2ccc(C(=O)NCCCCc3cccc4c3n(C)c(=O)n4C3CCC(=O)NC3=O)cc2)nn2c(C(=O)N[C@@H]3C[C@@H]3F)cnc12` (stereo partly drawn) [Example K299]: the half-maximal degradation concentration (DC50) at TYK2 [1], at TYK2 [2] (setting [4]) and on TYK2 [3] was more than 100 nM each time.

`CNc1cc(-c2ccc(C(=O)NCCCCCCc3cccc4c3n(C)c(=O)n4C3CCC(=O)NC3=O)cc2)nn2c(C(=O)N[C@@H]3C[C@@H]3F)cnc12` (stereo partly drawn) [Example K300]: the 50% degradation concentration (DC50) on TYK2 [1], at TYK2 [2] (setting [4]) and on TYK2 [3] was more than 100 nM each time.

As for `CNc1cc(-c2ccc(C(=O)NCCCCCCCCc3ccc4c(c3)n(C)c(=O)n4C3CCC(=O)NC3=O)cc2)nn2c(C(=O)N[C@@H]3C[C@@H]3F)cnc12` (stereo partly drawn) [Example K301], the DC50 at TYK2 [1], on TYK2 [2] (setting [4]) and on TYK2 [3] was more than 100 nM each time.

In the case of `CNc1cc(C2CCN(C(=O)CCCCCCCc3ccc4c(c3)n(C)c(=O)n4C3CCC(=O)NC3=O)CC2)nn2c(C(=O)N[C@@H]3C[C@@H]3F)cnc12` (stereo partly drawn) [Example K302], the DC50 at TYK2 [1], at TYK2 [2] (setting [4]) and at TYK2 [3] was more than 100 nM in each case.

Regarding `CNc1cc(-c2ccc(C(=O)NCCCCCCCCc3cccc4c3n(C)c(=O)n4C3CCC(=O)NC3=O)cc2)nn2c(C(=O)N[C@@H]3C[C@@H]3F)cnc12` (stereo partly drawn) [Example K303], the 50% degradation concentration (DC50) at TYK2 [1], at TYK2 [2] (setting [4]) and at TYK2 [3] was more than 100 nM throughout.

On to `CNc1cc(C2CCCN(C(=O)CCCCCCCc3ccc4c(c3)n(C)c(=O)n4C3CCC(=O)NC3=O)C2)nn2c(C(=O)N[C@@H]3C[C@@H]3F)cnc12` (stereo partly drawn) [Example K304], for which the 50% degradation concentration (DC50) at TYK2 [1], on TYK2 [2] (setting [4]) and at TYK2 [3] was more than 100 nM each time.

In the case of `CNc1cc(-c2cccc(C(=O)NCCCCc3cccc4c3n(C)c(=O)n4C3CCC(=O)NC3=O)c2)nn2c(C(=O)N[C@@H]3C[C@@H]3F)cnc12` (stereo partly drawn) [Example K305], the DC50 at TYK2 [1], on TYK2 [2] (setting [4]) and at TYK2 [3] was more than 100 nM throughout.

Regarding `CNc1cc(-c2cccc(C(=O)NCCCCCCc3ccc4c(c3)n(C)c(=O)n4C3CCC(=O)NC3=O)c2)nn2c(C(=O)N[C@@H]3C[C@@H]3F)cnc12` (stereo partly drawn) [Example K306], the DC50 on TYK2 [1], on TYK2 [2] (setting [4]) and on TYK2 [3] was more than 100 nM throughout.

With `CNc1cc(-c2cccc(C(=O)NCCCCc3ccc4c(c3)n(C)c(=O)n4C3CCC(=O)NC3=O)c2)nn2c(C(=O)N[C@@H]3C[C@@H]3F)cnc12` (stereo partly drawn) [Example K307], the 50% degradation concentration (DC50) on TYK2 [1], on TYK2 [2] (setting [4]) and on TYK2 [3] was more than 100 nM in each case.

Turning to `CNc1cc(-c2cccc(C(=O)NCCCCCCc3cccc4c3n(C)c(=O)n4C3CCC(=O)NC3=O)c2)nn2c(C(=O)N[C@@H]3C[C@@H]3F)cnc12` (stereo partly drawn) [Example K308], the DC50 at TYK2 [1], at TYK2 [2] (setting [4]) and at TYK2 [3] was more than 100 nM in each case.

As to `CNc1cc(-c2cccc(C(=O)NCCCCCCCCc3ccc4c(c3)n(C)c(=O)n4C3CCC(=O)NC3=O)c2)nn2c(C(=O)NC3C[C@@H]3F)cnc12` (stereo partly drawn) [Example K309], the 50% degradation concentration (DC50) on TYK2 [1], at TYK2 [2] (setting [4]) and on TYK2 [3] was more than 100 nM each time.

With `CNc1cc(-c2cccc(C(=O)NCCCCCCCCc3cccc4c3n(C)c(=O)n4C3CCC(=O)NC3=O)c2)nn2c(C(=O)N[C@@H]3C[C@@H]3F)cnc12` (stereo partly drawn) [Example K310], the half-maximal degradation concentration (DC50) at TYK2 [1], at TYK2 [2] (setting [4]) and on TYK2 [3] was more than 100 nM throughout.

`CNc1cc(-c2cnn(C3CCN(C(=O)NCCCCCCc4ccc5c(c4)n(C)c(=O)n5C4CCC(=O)NC4=O)CC3)c2)nn2c(C(=O)N[C@@H]3C[C@@H]3F)cnc12` (stereo partly drawn) [Example K311]: the half-maximal degradation concentration (DC50) on TYK2 [1], at TYK2 [2] (setting [4]) and at TYK2 [3] was more than 100 nM each time.

With `CNc1cc(-c2cnn(C3CCN(C(=O)NCCCCCCc4cccc5c4n(C)c(=O)n5C4CCC(=O)NC4=O)CC3)c2)nn2c(C(=O)N[C@@H]3C[C@@H]3F)cnc12` (stereo partly drawn) [Example K312], the DC50 at TYK2 [1], at TYK2 [2] (setting [4]) and on TYK2 [3] was more than 100 nM throughout.

Take `CNc1cc(-c2cnn(C3CCN(C(=O)NCCCCCCCCc4cccc5c4n(C)c(=O)n5C4CCC(=O)NC4=O)CC3)c2)nn2c(C(=O)N[C@@H]3C[C@@H]3F)cnc12` (stereo partly drawn) [Example K313]: the 50% degradation concentration (DC50) on TYK2 [1] was more than 100 nM; on TYK2 [2] (setting [4]) it was more than 100 nM; on TYK2 [3], 1 to 10 nM.

For `CNc1cc(-c2cnn(C3CN(C(=O)NCCCCc4ccc5c(c4)n(C)c(=O)n5C4CCC(=O)NC4=O)C3)c2)nn2c(C(=O)N[C@@H]3C[C@@H]3F)cnc12` (stereo partly drawn) [Example K314], the half-maximal degradation concentration (DC50) at TYK2 [1], at TYK2 [2] (setting [4]) and on TYK2 [3] was more than 100 nM each time.

As to `CNc1cc(-c2cnn(C3CN(C(=O)NCCCCCCc4ccc5c(c4)n(C)c(=O)n5C4CCC(=O)NC4=O)C3)c2)nn2c(C(=O)N[C@@H]3C[C@@H]3F)cnc12` (stereo partly drawn) [Example K315], the DC50 at TYK2 [1], at TYK2 [2] (setting [4]) and at TYK2 [3] was more than 100 nM each time.

`CNc1cc(-c2cnn(C3CN(C(=O)NCCCCc4cccc5c4n(C)c(=O)n5C4CCC(=O)NC4=O)C3)c2)nn2c(C(=O)N[C@@H]3C[C@@H]3F)cnc12` (stereo partly drawn) [Example K316]: the DC50 on TYK2 [1], at TYK2 [2] (setting [4]) and on TYK2 [3] was more than 100 nM throughout.

Consider `CNc1cc(-c2cnn(C3CN(C(=O)NCCCCCCc4cccc5c4n(C)c(=O)n5C4CCC(=O)NC4=O)C3)c2)nn2c(C(=O)N[C@@H]3C[C@@H]3F)cnc12` (stereo partly drawn) [Example K317], for which the DC50 at TYK2 [1], on TYK2 [2] (setting [4]) and at TYK2 [3] was more than 100 nM each time.

`CNc1cc(-c2cnn(C3CN(C(=O)NCCCCCCCCc4ccc5c(c4)n(C)c(=O)n5C4CCC(=O)NC4=O)C3)c2)nn2c(C(=O)NC3C[C@@H]3F)cnc12` (stereo partly drawn) [Example K318]: the 50% degradation concentration (DC50) at TYK2 [1], on TYK2 [2] (setting [4]) and at TYK2 [3] was more than 100 nM in each case.

On to `CNc1cc(-c2cnn(C3CN(C(=O)NCCCCCCCCc4cccc5c4n(C)c(=O)n5C4CCC(=O)NC4=O)C3)c2)nn2c(C(=O)N[C@@H]3C[C@@H]3F)cnc12` (stereo partly drawn) [Example K319], for which the DC50 on TYK2 [1], at TYK2 [2] (setting [4]) and on TYK2 [3] was more than 100 nM in each case.

Turning to `CNc1cc(Nc2cccn(-c3ccc(C(=O)NCCCCc4ccc5c(c4)n(C)c(=O)n5C4CCC(=O)NC4=O)cn3)c2=O)nn2c(C(N)=O)cnc12` (stereo not drawn) [Example K320], the half-maximal degradation concentration (DC50) on TYK2 [1], at TYK2 [2] (setting [4]) and at TYK2 [3] was more than 100 nM each time.

Regarding `CNc1cc(Nc2cccn(-c3ccc(C(=O)NCCCCc4ccc5c(c4)n(C)c(=O)n5C4CCC(=O)NC4=O)cn3)c2=O)nn2c(C(=O)NC3CCC3)cnc12` (stereo not drawn) [Example K321], the 50% degradation concentration (DC50) at TYK2 [1], on TYK2 [2] (setting [4]) and on TYK2 [3] was more than 100 nM in each case.

For `CNc1cc(Nc2cccn(-c3ccc(C(=O)NCCCCc4ccc5c(c4)n(C)c(=O)n5C4CCC(=O)NC4=O)cn3)c2=O)nn2c(C(=O)NC3CC3)cnc12` (stereo not drawn) [Example K322], the DC50 at TYK2 [1], on TYK2 [2] (setting [4]) and on TYK2 [3] was more than 100 nM each time.

Turning to `Cn1c(=O)n(C2CCC(=O)NC2=O)c2ccc(CCCCNC(=O)c3ccc(-c4ccc5ncc(C(=O)N[C@@H]6C[C@@H]6F)n5n4)cc3)cc21` (stereo partly drawn) [Example K324], the 50% degradation concentration (DC50) at TYK2 [1], at TYK2 [2] (setting [4]) and at TYK2 [3] was more than 100 nM each time.

On to `Cn1c(=O)n(C2CCC(=O)NC2=O)c2ccc(CCCCNC(=O)c3ccc(-n4cccc(Nc5ccc6ncc(C(=O)N[C@@H]7C[C@@H]7F)n6n5)c4=O)nc3)cc21` (stereo partly drawn) [Example K325], for which the 50% degradation concentration (DC50) at TYK2 [1], at TYK2 [2] (setting [4]) and on TYK2 [3] was more than 100 nM in each case.

For `Cn1c(=O)n(C2CCC(=O)NC2=O)c2ccc(CCCCNC(=O)c3ccccc3Nc3ccc4ncc(C(=O)N[C@@H]5C[C@@H]5F)n4n3)cc21` (stereo partly drawn) [Example K326], the 50% degradation concentration (DC50) on TYK2 [1], at TYK2 [2] (setting [4]) and on TYK2 [3] was more than 100 nM each time.

In the case of `Cn1c(=O)n(C2CCC(=O)NC2=O)c2ccc(CCCCC(=O)N3CCC(n4cc(-c5ccc6ncc(C(=O)N[C@@H]7C[C@@H]7F)n6n5)cn4)CC3)cc21` (stereo partly drawn) [Example K327], the 50% degradation concentration (DC50) on TYK2 [1], on TYK2 [2] (setting [4]) and at TYK2 [3] was more than 100 nM each time.

For the compound `Cn1c(=O)n(C2CCC(=O)NC2=O)c2ccc(CCCCNC(=O)c3cccc(Nc4ccc5ncc(C(=O)N[C@@H]6C[C@@H]6F)n5n4)c3)cc21` (stereo partly drawn) [Example K328], the DC50 at TYK2 [1] is more than 100 nM; on TYK2 [2] (read-out: TYK2 MSD DC50 rating in EBV-B, 4 to 24 hours incubation), more than 100 nM; on TYK2 [3], more than 100 nM.
